# Source: US4006240A, “Alcohol aversion process by enzyme inhibition” (priority 1975, dated 1977)
# How the values were obtained:
# [1] = Dose without significant effect on water or total fluid intake; settings: mouse, in vivo, ip; intraperitoneal injection at 12 hourly intervals, read from dose graph; read-out: Dose which has no significant effect on water or total fluid intake
# Source text: The dose of the choline acetylase inhibitor when administered according to the present invention is selected to cause effective aversion to alcohol consumption. Effective aversion is intended to mean either the complete lack of compulsion to consume alcohol or at least a reduction of the compulsion to a point where the subject may consume alcohol in a strictly elective manner without being dependent thereon. The dose is also selected to be substantially free of undesirable side effects. By this is meant that the side effects are at most of a trivial nature and unimportant relative to the benefit derived from the treatment. One effect of excessive dosage with a choline acetylase inhibitor is a reduction in water consumption. […]
# The dose of trans-4-[2-(1-naphthyl)vinyl]pyridine hydrochloride which has no significant effect on water or total fluid intake of these animals was determined to be 2 mg./kg. This was determined by intraperitoneal injection of trans-4-[2-(1-naphthyl)vinyl]pyridine hydrochloride at 12 hourly intervals during the test period at various dosage concentrations for various groups of mice. […]
# C57B1/6J mice = test: Ethanol aversion in C57B1/6J mice, free choice of water and 5% ethanol; assay type: in vivo, mouse; settings: for 5% alcohol daily consumption: 2 mg./kg. i.p. at 12 hourly intervals; for 5% alcohol daily consumption / Water daily consumption: N = 8
# Description: Adult male C57B1/6J mice weighing 20-25 g. were then placed into individual cages equipped with two small drinking tubes, one filled with water and the other with 5% ethanol in water. Food, water and alcohol solution were available ad libitum and the daily consumption of each was recorded at 10 a.m. The positions of the tubes were interchanged daily and different tubes were ocassionally substituted. After a period of 4 days to establish a reference base for alcohol and water consumption respectively, the animals were treated by intraperitoneal injection with 2 mg./kg. of body weight of trans-4-[2-(1-naphthyl)vinyl]-pyridine hydrochloride at 12 hourly intervals on the 5th and 6th days. Drug treatment was terminated on the 6th day and the animals were kept for an additional two days. The average values of water, 5% alcohol, and total fluid intake for each of these 8 days of the experiment are shown in the following table.
# [2] = tested on: rats trained on a conditioned avoidance procedure; settings: 2.0 mg./kg. intraperitoneally, 3 hr. session; cited from earlier work
# [3] = day 5, 2 mg./kg. i.p. at 12 hourly intervals
# [4] = day 6, 2 mg./kg. i.p. at 12 hourly intervals
Compound,NOAEL [1] [mg/kg],"Alcohol consumption as share of the daily fluid intake on the days of drug treatment (C57B1/6J mice; 5th and 6th days, 2 mg./kg. i.p., about 65% without drug)","Total daily fluid intake during the experimental period (C57B1/6J mice; 8-day experiment, drug on days 5 and 6)",5% alcohol daily consumption (C57B1/6J mice; day 5 (first treatment day)) [mL/kg],5% alcohol as % of total daily fluid intake (C57B1/6J mice; [3]) [%],Total daily fluid consumption (C57B1/6J mice; [3]) [mL/kg],Water daily consumption (C57B1/6J mice; [3]) [mL/kg],5% alcohol daily consumption (C57B1/6J mice; day 6 (second treatment day)) [mL/kg],5% alcohol as % of total daily fluid intake (C57B1/6J mice; [4]) [%],Total daily fluid consumption (C57B1/6J mice; [4]) [mL/kg],Water daily consumption (C57B1/6J mice; [4]) [mL/kg],"Water and alcohol intakes on cessation of drug treatment (C57B1/6J mice; days 7 and 8, after drug treatment ended)",Increase in the response rate [2] [%]
"C(=C\c1cccc2ccccc12)/c1ccncc1.Cl [N V P, trans-4-[2-(1-naphthyl)vinyl]pyridine hydrochloride]",2,about 42%,remained substantially constant,60 ± 2,34,177,117 ± 4,82 ± 3,43,193,111 ± 4,returned substantially to their pretreatment values,–
CC(N)Cc1ccccc1 (stereo not shown) [amphetamine],–,–,–,–,–,–,–,–,–,–,–,–,~75
